Results as given in patent US20250340551A1, “SMALL MOLECULE MODULATORS OF STAT6” (Gilead Sciences, Inc., priority 2024, published 2025).
pEC50, pKd: −log10 of the molar value.

Key:
[1] = system: Eotaxin-3 (CCL26) release in human whole blood stimulated with IL-4; assay: Human whole blood eotaxin-3 assay (IL-4 stimulated, Eotaxin-3 release); format: cell-based; details: Homo sapiens; for pEC50: Hec50, 48 h
Experimental: This was a human whole blood assay using recombinant human Interleukin 4 to stimulate the blood and measuring the ability of the test compounds to inhibit eotaxin-3 release. The biological activities of the test compounds have been tested in human whole blood stimulated with IL-4 measuring Eotaxin-3 release. The test compounds were added to 384 well clear flat-bottom plate in a 4-fold serial dilution in triplicates using a liquid handler. Human whole blood stabilized in lithium-heparin tubes was added in a volume of 65 μL per well, resulting in a final DMSO concentration of 0.5%. The plate is incubated for 2 h at 37° C. under 5% CO2/95% air. Subsequently, 5 μL of recombinant human IL-4 (R&D Systems, cat #204-ILB) was added to the wells to a final concentration of 400 pM. The plate was incubated for 48 h at 37° C. under 5% CO2/95% air. The plate was spun down for 10 minutes at 500×g and 20 μL supernatant was harvested and transferred to a 384 well v-bottom plate using a liquid handler and stored at −20° C. until further analysis. 10 μL supernatant was used to measure the level of Eotaxin-3 (CCL26) using Human Eotaxin-3 MSD kit from Mesocsale (Cat #K251UEK-4). The assay was performed according to the manufacture instructions.
The data from the human whole blood eotaxin-3 assay is shown below for Examples 1u2, 1x1, 1af26, and 1af36 (where the effect in % is plotted against the test concentration in M on a log-scale).

human STAT6 = human STAT6 (Homo sapiens (Human), UniProt P42226); assay: Surface plasmon resonance assay (Biacore 8K, binding to immobilized STAT6); details: human STAT6 aa122-658, N-terminal His-tag, CM5 chip, 25° C.; geometric mean; read-out: STAT6 SPR Kd
human STAT6, sequence (P42226 122-658): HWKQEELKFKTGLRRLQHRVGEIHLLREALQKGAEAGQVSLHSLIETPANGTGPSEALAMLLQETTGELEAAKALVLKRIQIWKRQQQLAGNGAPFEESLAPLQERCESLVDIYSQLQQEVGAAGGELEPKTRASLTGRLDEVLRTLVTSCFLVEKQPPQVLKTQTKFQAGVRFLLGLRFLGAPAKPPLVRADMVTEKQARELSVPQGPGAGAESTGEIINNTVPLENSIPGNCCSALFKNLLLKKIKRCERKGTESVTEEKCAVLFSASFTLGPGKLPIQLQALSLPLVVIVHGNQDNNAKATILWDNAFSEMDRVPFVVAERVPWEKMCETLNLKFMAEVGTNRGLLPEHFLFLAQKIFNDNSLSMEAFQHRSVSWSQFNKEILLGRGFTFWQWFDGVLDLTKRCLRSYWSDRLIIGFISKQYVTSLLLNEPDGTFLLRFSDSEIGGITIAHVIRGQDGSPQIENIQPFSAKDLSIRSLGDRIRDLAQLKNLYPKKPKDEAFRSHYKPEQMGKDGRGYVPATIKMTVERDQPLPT
Summary of the method: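 Run at 25° C with His-tagged STAT6 aa122-658 (insect-cell expressed) amine-coupled to a CM5 chip, reference-subtracted, in PBS-P+ with 2% DMSO. Multi-cycle kinetics: 60 sec. contact, up to 300 sec. dissociation. Affinity fitted from late report-point binding isotherms, with Rmax both free and fixed to theoretical 1:1.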

Row | pKd (human STAT6) | Compound | also measured
1 | 5.22 | CN(C)C(=O)c1ccc(C2CCN(Cc3cc4c(-c5cnc(N)c(S(C)(=O)=O)c5)ccnc4n3C)CC2)cc1 [Example 1k25, 4-[1-[[4-(6-Amino-5-methylsulfonyl-3-pyridyl)-1-methyl-pyrrolo[2,3-b]pyridin-2-yl]methyl]-4-piperidyl]-N,N-dimethyl-benzamide] | –
2 | 7.56 | [2H]C([2H])([2H])n1c(CN2CCC(c3ccc(C(=O)N(C)C)cc3)CC2)cc2c(-c3ccc(N)nc3C#N)ccnc21 [Example 1k45, 4-[1-[[4-(6-Amino-2-cyano-3-pyridyl)-1-(trideuteriomethyl)pyrrolo[2,3-b]pyridin-2-yl]methyl]-4-piperidyl]-N,N-dimethyl-benzamide] | –
3 | 7.17 | CN(C)C(=O)c1ccc(N2CCN(Cc3cc4c(-c5ccc(N)nc5)ccnc4n3C)C(=O)C2)cc1 [Example 1ae7, 4-[4-[[4-(6-Amino-3-pyridyl)-1-methyl-pyrrolo[2,3-b]pyridin-2-yl]methyl]-3-oxo-piperazin-1-yl]-N,N-dimethyl-benzamide] | –
4 | 5.19 | Cc1cc(C(=O)N(C)C)ccc1C1CCN([C@@H](C)c2cc3c(-c4ccc(N)cn4)ccnc3n2C)CC1 [Example 1af17, (S)-4-(1-(1-(4-(5-aminopyridin-2-yl)-1-methyl-1H-pyrrolo[2,3-b]pyridin-2-yl)ethyl)piperidin-4-yl)-N,N,3-trimethylbenzamide] | –
5 | 7.39 | CNc1ccc(-c2ccnc3c2cc(CN2CC[C@@H](c4ccc(C(=O)N(C)C)cc4)[C@@H](F)C2)n3C)cn1 (stereo in doubt) [Example 1s27, N,N-Dimethyl-4-[(3R,4S)-3-fluoro-1-[[1-methyl-4-[6-(methylamino)-3-pyridyl]pyrrolo[2,3-b]pyridin-2-yl]methyl]-4-piperidyl]benzamide] | –

Continued, compound first:

Row | Compound | pKd (human STAT6) | also measured
6 | CNc1ccc(-c2ccnc3c2cc(CN2CC[C@@H](c4ccc(C(=O)N(C)C)cc4)[C@H](F)C2)n3C)nc1 (stereo in doubt) [Example 1o17, 4-((3S,4S)-3-fluoro-1-((1-methyl-4-(5-(methylamino)pyridin-2-yl)-1H-pyrrolo[2,3-b]pyridin-2-yl)methyl)piperidin-4-yl)-N,N-dimethylbenzamide] | – | Emax ([1]; 48 h): < 20%
7 | [2H]C([2H])([2H])N(C(=O)c1ccc(C2=CCN([C@@H](C)c3cc4c(-c5ccc(NC)nn5)ccnc4n3C)CC2)cc1)C([2H])([2H])[2H] [Example 1af60, (S)—N,N-bis(methyl-d3)-4-(1-(1-(1-methyl-4-(6-(methylamino)pyridazin-3-yl)-1H-pyrrolo[2,3-b]pyridin-2-yl)ethyl)-1,2,3,6-tetrahydropyridin-4-yl)benzamide] | – | pEC50 [1]: 5.89
8 | Cc1cc(C(=O)N(C)C)cc(F)c1C1=CCN(C(C)c2cc3c(-c4ccc(N)cn4)ccnc3n2C)CC1 (stereo not drawn) [Example 1z31, 4-(1-(1-(4-(5-aminopyridin-2-yl)-1-methyl-1H-pyrrolo[2,3-b]pyridin-2-yl)ethyl)-1,2,3,6-tetrahydropyridin-4-yl)-3-fluoro-N,N,5-trimethylbenzamide] | – | pEC50 [1]: 7.20
9 | CN(C)C(=O)c1cc(F)c(C2=CCN(Cc3cc4c(-c5ccc(N)cn5)ccnc4n3C)CC2)c(F)c1 [Example 1z17, 4-(1-((4-(5-aminopyridin-2-yl)-1-methyl-1H-pyrrolo[2,3-b]pyridin-2-yl)methyl)-1,2,3,6-tetrahydropyridin-4-yl)-3,5-difluoro-N,N-dimethylbenzamide] | – | pEC50 [1]: 6.43
10 | CN(C)C(=O)c1ccc(C2=CCN(Cc3cc4c(-c5ccc(N)nn5)ccnc4n3C)CC2)nc1 [Example 1af78, 1′-((4-(6-Aminopyridazin-3-yl)-1-methyl-1H-pyrrolo[2,3-b]pyridin-2-yl)methyl)-N,N-dimethyl-1′,2′,3′,6′-tetrahydro-[2,4′-bipyridine]-5-carboxamide] | – | pEC50 [1]: 6.07
11 | CNc1ccc(-c2ccnc3c2cc([C@H](C)N2CC=C(c4c(C)cc(C(=O)N(C)C)cc4F)CC2)n3C)nc1 [Example 1z40, (S)-3-fluoro-N,N,5-trimethyl-4-(1-(1-(1-methyl-4-(5-(methylamino)pyridin-2-yl)-1H-pyrrolo[2,3-b]pyridin-2-yl)ethyl)-1,2,3,6-tetrahydropyridin-4-yl)benzamide] | – | pEC50 [1]: 5.48
12 | [2H]C([2H])([2H])N(C(=O)c1ccc(C2=CCN(C(C)c3cc4c(-c5ccc(N)nc5C#N)ccnc4n3C)CC2)cc1)C([2H])([2H])[2H] (stereo in doubt) [Example 1af22, (R)-4-(1-(1-(4-(6-Amino-2-cyanopyridin-3-yl)-1-methyl-1H-pyrrolo[2,3-b]pyridin-2-yl)ethyl)-1,2,3,6-tetrahydropyridin-4-yl)-N,N-bis(methyl-d3)benzamide] | 5.18 | –
13 | COc1cc(-c2ccnc3c2cc(CN2CCC(c4ccc(C(=O)N(C)C)cc4)CC2)n3C)c(C)nc1N [Example 1k33, 4-[1-[[4-(6-Amino-5-methoxy-2-methyl-3-pyridyl)-1-methyl-pyrrolo[2,3-b]pyridin-2-yl]methyl]-4-piperidyl]-N,N-dimethyl-benzamide] | 5.56 | –
14 | 4-(1-((4-(6-Amino-5-methoxypyridin-3-yl)-1-methyl-1H-pyrrolo[2,3-b]pyridin-2-yl)methyl)piperidin-4-yl)-N,N-dimethylbenzamide [Example 1k7] | 6.08 | –
15 | CN(C)C(=O)c1ccc([C@@H]2CCN(Cc3cc4c(-c5ccc(N)nc5)ccnc4n3C)C(=O)C2)cc1 [Example 1ae4, (R)—N,N-Dimethyl-4-[1-[[4-(6-amino-3-pyridyl)-1-methyl-pyrrolo[2,3-b]pyridin-2-yl]methyl]-2-oxo-4-piperidyl]benzamide] | 7.61 | –
16 | CN(C)C(=O)c1ccc(C2CCN(Cc3cc4c(-c5cnc(N)c(C#N)n5)ccnc4n3C)CC2)cc1 [Example 1k57, 4-[1-[[4-(5-Amino-6-cyano-pyrazin-2-yl)-1-methyl-pyrrolo[2,3-b]pyridin-2-yl]methyl]-4-piperidyl]-N,N-dimethyl-benzamide] | 6.12 | –
17 | [2H]C([2H])([2H])N(C(=O)c1ccc(C2CCN(Cc3cc4c(-c5ccc(N)cn5)ccnc4n3C)CC2)cc1)C([2H])([2H])[2H] [Example 1ae10, 4-[1-[[4-(5-Amino-2-pyridyl)-1-methyl-pyrrolo[2,3-b]pyridin-2-yl]methyl]-4-piperidyl]-N,N-bis(trideuteriomethyl)benzamide] | 7.60 | –
18 | C[C@@H](c1cc2c(-c3ccc(N)cn3)ccnc2n1C)N1CCC(c2ccc(C(=O)N(C)C)cc2)CC1 [Example 1af15, (S)-4-(1-(1-(4-(5-amino-pyridin-2-yl)-1-methyl-1H-pyrrolo[2,3-b]pyridin-2-yl)-ethyl)piperidin-4-yl)-N,N-dimethylbenzamide] | 6.36 | –
19 | CNc1ccc(-c2ccnc3c2cc([C@H](C)N2CCC(c4ccc(C(=O)N(C)C)cc4)CC2)n3C)cn1 (single isomer, unassigned) [Example 1af7] | 6.65 | –
20 | CN(C)C(=O)c1ccc(C2CCN(Cc3cc4c(-c5cnc(N)cc5C#N)ccnc4n3C)CC2)cc1 [Example 1k53, 4-[1-[[4-(6-Amino-4-cyano-3-pyridyl)-1-methyl-pyrrolo[2,3-b]pyridin-2-yl]methyl]-4-piperidyl]-N,N-dimethyl-benzamide] | 6.02 | –
21 | CNC(=O)c1ccc(C2CCN(Cc3cc4c(-c5ccc(N)nc5C#N)ccnc4n3C)CC2)cc1 [Example 1ae14, 4-[1-[[4-(6-Amino-2-cyano-3-pyridyl)-1-methyl-pyrrolo[2,3-b]pyridin-2-yl]methyl]-4-piperidyl]-N-methyl-benzamide] | 6.71 | –
